Experiments:
RLS symptoms = conditions: administration of rotigotine; cited from earlier work
[1] = Multiple dose trial with rotating patch application sites in early-stage Parkinson's disease: rotigotine pharmacokinetics (Example 4)
Description: Each day, a fresh patch was placed on a new skin site (abdomen, flank, upper arm, shoulder, thigh, hip) in a rotating order. The silicone transdermal patches were made in accordance with the teachings of U.S. Patent Application Publication No. US 2003/0026830 at paragraphs 38-42, U.S. Patent Application Publication No. US 2003/0027793 at paragraphs 37-41 and U.S. Pat. No. 6,884,434, columns 5-6, Example 2 and comprised the following layers and components:
The trial consisted of an Eligibility Assessment (EA), a 24-day Titration Phase (4.5 to 18.0 mg/day doses; incremental increases of 4.5mg/day every 6 days), a 6-day Maintenance Phase (18.0 mg/day dose), a 6-day De-escalation Phase (13.5/9.0/4.5mg/day decreasing dose every 2 days), and a Safety Follow-Up visit 2 days following the last dose.
The silicone transdermal patches were made in accordance with the teachings of U.S. Patent Application Publication No. US 2003/0026830 at paragraphs 3842 and U.S. Patent Application Publication No. US 2003/0027793 at paragraphs 3741 comprised the following layers and components as disclosed above
The 18.0 mg/day dose used 2×20 cm^2 patches. Initial doses were 4.5 mg/day with weekly increases of 4.5 mg/day to a maximum target dose of 18.0 mg/day.

[2] = application site Abdomen, normalized for body weight and apparent dose, Day 27 and Day 30 combined (PKS)
[3] = application site Flank, normalized for body weight and apparent dose, Day 27 and Day 30 combined (PKS)
[4] = application site Hip, normalized for body weight and apparent dose, Day 27 and Day 30 combined (PKS)
[5] = application site Shoulder, normalized for body weight and apparent dose, Day 27 and Day 30 combined (PKS)
[6] = application site Thigh, normalized for body weight and apparent dose, Day 27 and Day 30 combined (PKS)
[7] = application site Upper arm, normalized for body weight and apparent dose, Day 27 and Day 30 combined (PKS)

In the case of `CCCN(CCc1cccs1)[C@H]1CCc2c(O)cccc2C1` [rotigotine, (6S)-6{propyl[2-(2-thienyl)ethyl]amino}-5,6,7,8-tetrahydro-1-naphthalenol], the “effect on RLS symptoms” value (RLS symptoms) is listed as “suppression and reduction of RLS symptoms”, the “Time to Maximum Concentration” value ([1]; Day 30, site F (flank), Geo. Mean) is listed as 15.43 h and the “Time to Maximum Concentration” value ([1]; Days 27 and 30 combined, site UA (upper arm), Mean) is listed as 12.71 h. For the same molecule, the “AUC0-t,ss,normalized, Range” value [1, 2] was 89.3 to 952.1 ng·kg·h/mL/mg, the “Cmax,ss, normalized, Geometric mean (SD)” value [1, 2] was 16.367 (1.6473) ng * kg/mL/mg and the “Cmax,ss, normalized, Median” value [1, 2] was 14.906 ng·kg/mL/mg. For the same molecule, the “Cmax,ss, normalized, Geometric mean (SD)” value [1, 3] was 17.168 (1.5894) ng * kg/mL/mg, the “Cmax,ss, normalized, Mean” value [1, 3] was 18.976 ng·kg/mL/mg and the “Cmax,ss, normalized, Median” value [1, 3] was 16.666 ng·kg/mL/mg. The “Cmax,ss, normalized, Geometric mean (SD)” value [1, 4] was 17.253 (1.6685) ng * kg/mL/mg, the “Cmax,ss, normalized, Mean” value [1, 4] was 19.956 ng·kg/mL/mg and the “Cmax,ss, normalized, Median” value [1, 4] was 15.577 ng·kg/mL/mg. The “Cmax,ss, normalized, Geometric mean (SD)” value [1, 5] was 14.499 (1.5627) ng * kg/mL/mg, the “Cmax,ss, normalized, Mean” value [1, 5] was 15.898 ng·kg/mL/mg and the “Cmax,ss, normalized, Median” value [1, 5] was 15.328 ng·kg/mL/mg. The “Cmax,ss, normalized, Geometric mean (SD)” value [1, 6] was 16.046 (1.5548) ng * kg/mL/mg, the “Cmax,ss, normalized, Mean” value [1, 6] was 17.793 ng·kg/mL/mg and the “Cmax,ss, normalized, Median” value [1, 6] was 15.506 ng·kg/mL/mg. For the same molecule, the “Cmax,ss, normalized, Geometric mean (SD)” value [1, 7] was 16.508 (1.4597) ng * kg/mL/mg, the “Cmax,ss, normalized, Mean” value [1, 7] was 17.727 ng·kg/mL/mg and the “Cmax,ss, normalized, Median” value [1, 7] was 15.499 ng·kg/mL/mg. For the same molecule, the “plasma concentration at Time 0 (Ctrough)” value ([1]; human, in vivo) was “about 1 ng/mL”, the concentration at 30 day ([1]; human, in vivo, 18 mg/day, Average Concentration, Day 30, site UA (upper arm), Median) was 0.895 ng/mL and the concentration at […] ([1]; human, in vivo, 18 mg/day, rotigotine plasma concentration Geo. Mean, Hip, Day 27, 23.5 H) was 0.875 ng/mL. It also gave a concentration at […] ([1]; human, in vivo, 18 mg/day, rotigotine plasma concentration Geo. Mean, Hip, Day 30, 23.5 H) of 0.758 ng/mL, a concentration at […] ([1]; human, in vivo, 18 mg/day, rotigotine plasma concentration Geo. Mean, Shoulder, Day 30, 23.5 H) of 0.851 ng/mL and a concentration at […] ([1]; human, in vivo, 18 mg/day, rotigotine plasma concentration Geo. Mean, Shoulder, Days 27 & 30 Combined, 23.5 H) of 0.82 ng/mL. For the same molecule, the concentration at […] ([1]; human, in vivo, 18 mg/day, rotigotine plasma concentration Geo. Mean, Thigh, Day 30, 23.5 H) was 0.656 ng/mL, the concentration at 18 h ([1]; human, in vivo, 18 mg/day, rotigotine plasma concentration Geo. Mean, Thigh, Days 27 & 30 Combined, 18 H) was 0.895 ng/mL and the concentration at […] ([1]; human, in vivo, 18 mg/day, rotigotine plasma concentration Geo. Mean, Thigh, Days 27 & 30 Combined, 23.5 H) was 0.639 ng/mL. It also gave a concentration at […] ([1]; human, in vivo, 18 mg/day, rotigotine plasma concentration Geo. Mean, Upper Arm, Day 30, 23.5 H) of 0.833 ng/mL, a concentration at […] ([1]; human, in vivo, 18 mg/day, rotigotine plasma concentration Geo. Mean, Upper Arm, Days 27 & 30 Combined, 23.5 H) of 0.789 ng/mL and a concentration at […] ([1]; human, in vivo, 18 mg/day, rotigotine plasma concentration Max, Hip, Day 27, 23.5 H) of 1.75 ng/mL. For the same molecule, the concentration at […] ([1]; human, in vivo, 18 mg/day, rotigotine plasma concentration Max, Hip, Day 30, 23.5 H) was 1.35 ng/mL, the concentration at […] ([1]; human, in vivo, 18 mg/day, rotigotine plasma concentration Max, Hip, Days 27 & 30 Combined, 23.5 H) was 1.75 ng/mL and the concentration at […] ([1]; human, in vivo, 18 mg/day, rotigotine plasma concentration Max, Shoulder, Day 30, 23.5 H) was 3.01 ng/mL. The concentration at […] ([1]; human, in vivo, 18 mg/day, rotigotine plasma concentration Max, Shoulder, Days 27 & 30 Combined, 23.5 H) was 3.01 ng/mL, the concentration at […] ([1]; human, in vivo, 18 mg/day, rotigotine plasma concentration Max, Thigh, Day 30, 23.5 H) was 1.59 ng/mL and the concentration at […] ([1]; human, in vivo, 18 mg/day, rotigotine plasma concentration Max, Thigh, Days 27 & 30 Combined, 23.5 H) was 1.59 ng/mL. The concentration at […] ([1]; human, in vivo, 18 mg/day, rotigotine plasma concentration Max, Upper Arm, Day 27, 23.5 H) was 1.88 ng/mL, the concentration at […] ([1]; human, in vivo, 18 mg/day, rotigotine plasma concentration Max, Upper Arm, Day 30, 23.5 H) was 1.67 ng/mL and the concentration at […] ([1]; human, in vivo, 18 mg/day, rotigotine plasma concentration Max, Upper Arm, Days 27 & 30 Combined, 23.5 H) was 1.88 ng/mL. For the same molecule, the concentration at […] ([1]; human, in vivo, 18 mg/day, rotigotine plasma concentration Mean, Hip, Day 27, 23.5 H) was 0.96 ng/mL, the concentration at […] ([1]; human, in vivo, 18 mg/day, rotigotine plasma concentration Mean, Hip, Day 30, 23.5 H) was 0.82 ng/mL and the concentration at […] ([1]; human, in vivo, 18 mg/day, rotigotine plasma concentration Mean, Hip, Days 27 & 30 Combined, 23.5 H) was 0.89 ng/mL. For the same molecule, the concentration at […] ([1]; human, in vivo, 18 mg/day, rotigotine plasma concentration Mean, Shoulder, Day 30, 23.5 H) was 1.02 ng/mL, the concentration at […] ([1]; human, in vivo, 18 mg/day, rotigotine plasma concentration Mean, Shoulder, Days 27 & 30 Combined, 23.5 H) was 0.966 ng/mL and the concentration at […] ([1]; human, in vivo, 18 mg/day, rotigotine plasma concentration Mean, Thigh, Day 30, 23.5 H) was 0.784 ng/mL. It also gave a concentration at […] ([1]; human, in vivo, 18 mg/day, rotigotine plasma concentration Mean, Thigh, Days 27 & 30 Combined, 23.5 H) of 0.735 ng/mL, a concentration at […] ([1]; human, in vivo, 18 mg/day, rotigotine plasma concentration Mean, Upper Arm, Day 27, 23.5 H) of 0.936 ng/mL and a concentration at […] ([1]; human, in vivo, 18 mg/day, rotigotine plasma concentration Mean, Upper Arm, Day 30, 23.5 H) of 0.924 ng/mL. For the same molecule, the concentration at […] ([1]; human, in vivo, 18 mg/day, rotigotine plasma concentration Mean, Upper Arm, Days 27 & 30 Combined, 23.5 H) was 0.93 ng/mL, the concentration at […] ([1]; human, in vivo, 18 mg/day, rotigotine plasma concentration Median, Hip, Day 27, 23.5 H) was 0.957 ng/mL and the concentration at […] ([1]; human, in vivo, 18 mg/day, rotigotine plasma concentration Median, Hip, Day 30, 23.5 H) was 0.692 ng/mL. For the same molecule, the concentration at […] ([1]; human, in vivo, 18 mg/day, rotigotine plasma concentration Median, Shoulder, Day 30, 23.5 H) was 0.848 ng/mL, the concentration at […] ([1]; human, in vivo, 18 mg/day, rotigotine plasma concentration Median, Shoulder, Days 27 & 30 Combined, 23.5 H) was 0.799 ng/mL and the concentration at […] ([1]; human, in vivo, 18 mg/day, rotigotine plasma concentration Median, Thigh, Day 30, 23.5 H) was 0.68 ng/mL. For the same molecule, the concentration at […] ([1]; human, in vivo, 18 mg/day, rotigotine plasma concentration Median, Thigh, Days 27 & 30 Combined, 23.5 H) was 0.668 ng/mL, the concentration at […] ([1]; human, in vivo, 18 mg/day, rotigotine plasma concentration Median, Upper Arm, Day 30, 23.5 H) was 0.899 ng/mL and the concentration at […] ([1]; human, in vivo, 18 mg/day, rotigotine plasma concentration Median, Upper Arm, Days 27 & 30 Combined, 23.5 H) was 0.899 ng/mL. For the same molecule, the concentration at […] ([1]; human, in vivo, 18 mg/day, rotigotine plasma concentration Min, Hip, Day 27, 23.5 H) was 0.261 ng/mL, the concentration at […] ([1]; human, in vivo, 18 mg/day, rotigotine plasma concentration Min, Hip, Day 30, 23.5 H) was 0.461 ng/mL and the concentration at […] ([1]; human, in vivo, 18 mg/day, rotigotine plasma concentration Min, Hip, Days 27 & 30 Combined, 23.5 H) was 0.261 ng/mL. For the same molecule, the concentration at […] ([1]; human, in vivo, 18 mg/day, rotigotine plasma concentration Min, Shoulder, Day 30, 23.5 H) was 0.405 ng/mL, the concentration at […] ([1]; human, in vivo, 18 mg/day, rotigotine plasma concentration Min, Shoulder, Days 27 & 30 Combined, 23.5 H) was 0.387 ng/mL and the concentration at […] ([1]; human, in vivo, 18 mg/day, rotigotine plasma concentration Min, Thigh, Day 30, 23.5 H) was 0.152 ng/mL.
